Measurements as given in patent US10029986B2, “Alkynyl pyridine-substituted amide compound and pesticide” (NISSAN CHEMICAL INDUSTRIES, LTD., priority 2014, dated 2018).

Key:
[1] = system: Colletotrichum lagenarium (Synonym: Colletotrichum orbiculare); experiment: Test on the preventive effect against cucumber anthracnose; format: in vivo; conditions: 168 h, test solution A 500 ppm, 5 ml per pot sprayed, 2 days inoculation chamber then 7 days at 23° C.
Experimental: Compounds of the present invention were dissolved in a solvent for emulsion (a mixture of Sorpol (registered trademark) 3005XL (manufactured by Toho Chemical Industry Co., Ltd.): N-methylpyrrolidone: Solvesso (registered trademark) 200 (manufactured by ExxonMobil Chemical) in a ratio of 1:5:2) to prepare 20 wt % emulsifiable concentrates. Then, distilled water was added to dilute the emulsifiable concentrates to the prescribed concentration (500 ppm), and the obtained solutions were used in the following the Test Examples 1 to 8. Cucumber (varieties: Sagami Hanjiro) was seeded in 90 cm^3 plastic pot, and at the cotyledon stage, 5 ml per pot of test solution A of the compounds of the present invention was sprayed. One day later, a suspension of conidium of Colletotrichum lagenarium (Synonym: Colletotrichum orbiculare) was sprayed, and the pot was left for 2 days in the inoculation chamber at 25° C. under humidity of 100% RH. Thereafter, the pot was placed in an air-conditioned greenhouse (23° C.) and left at the same temperature for 7 days. Thereafter, the proportion of the formed lesion in the inoculated leaves were measured to calculate the control value in accordance with the same formula as in Test Example 1. The test was carried out in duplicate.

[2] = system: Southern root-knot nematode (Meloidogyne incognita); experiment: Test on the preventive effect against Southern root-knot nematode (garden balsam seedlings); format: in vivo; conditions: 504 h, test solution B 100 ppm, 1 ml per seedling to base of garden balsam seedlings, 3 weeks in greenhouse, read-out: efficacy (root knot damage degree relative to non-treated plot)
Experimental: Compounds of the present invention were dissolved in dimethyl sulfoxide to prepare 1 wt % solutions. Then, distilled water was added to dilute the solutions to the prescribed concentration (100 ppm), and the obtained solutions were used in the following the Test Examples 9 to 12. 1 ml per seedling of test solution B of the compounds of the present invention was treated to the bases of garden balsam seedlings (about 2 weeks after budding) planted in a cell tray of which each cell was filled with 10 g of soil. 1 hour after the application, 1 ml per cell of water containing Southern root-knot nematode (Meloidogyne incognita) 2 L larvae (100 larvae of 2 L/1 ml) was applied to the base. The tray was placed in a greenhouse for 3 weeks, and the degree of root knot on the root was determined in accordance with the following damage index and the damage degree to calculate the efficacy (%) relative to the non-treated plot in accordance with the following formula. • 0: No knot formation was observed. • 1: Knot formations were observed on parts of the root system. • 2: Knot formations were observed on the entire root system. • 3: Large knot formations were observed. • 4: Large knot formations were observed on the entire root system. [Damage degree]=[Σ(damage index×number of each damaged indexed seedling)/(4×number of seedlings investigated)]×100 Efficacy (%)=[1−(damage degree in treated plot/damage degree in non-treated plot)]×100

[3] = system: Southern root-knot nematode (Meloidogyne incoqnita); experiment: Insecticidal test against Southern root-knot nematode (eggs, 96 well plate); format: in vivo; conditions: 96 h, test solution B 100 ppm, 10 μl per well, 25° C. dark, 4 days after treatment, read-out: efficacy (unhatched eggs + inactive larvae relative to non-treated)
Experimental: Compounds of the present invention were dissolved in dimethyl sulfoxide to prepare 1 wt % solutions. Then, distilled water was added to dilute the solutions to the prescribed concentration (100 ppm), and the obtained solutions were used in the following the Test Examples 9 to 12. 60 μl of a potato dextrose 1% agar medium was added to each well of a 96 well plate, and 30 μl of sterilized water containing eggs of Southern root-knot nematode (Meloidogyne incoqnita) (10 eggs/3 μl) was added to each well. Further, 10 μl per well of test solution B of the compounds of the present invention was added, and the plate was left at rest at 25° C. under dark conditions.

[4] = system: Phaeosphaeria nodorum (Synonym: Septoria nodorum); experiment: Test on the preventive effect against wheat glume blotch; format: in vivo; conditions: Parastagonospora nodorum, 144 h; test solution A 500 ppm, 5 ml per pot, wheat 1.3-leaf stage, 2 days inoculation chamber then 6 days at 20° C.
How it was run: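 Wheat (cv. Haruyutaka) at 1.3-leaf stage sprayed with compound at 500 ppm as diluted emulsifiable concentrate, then inoculated one day later with conidial suspension. Kept 2 days at 20° C and 100% RH, then 6 days in a greenhouse at 20° C. Control value derived from lesion proportion on inoculated leaves; duplicate.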

[5] = system: Botrytis cinerea; experiment: Test on the preventive effect against cucumber gray mold (spore inoculation); format: in vivo; conditions: 72 h, test solution A 500 ppm, 5 ml per pot, cucumber cut leaves, conidium inoculation, 3 days at 20° C.
How it was run: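 Cotyledon-stage cucumber (Sagami Hanjiro) sprayed with 500 ppm compound from emulsifiable concentrate; detached treated leaves inoculated with B. cinerea conidia in PDA (1:1). After 3 days at 20 °C, humid, lesion proportion gave control value; duplicate test.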

With `CC(CNC(=O)c1cccnc1C(F)F)c1ncc(C#CC2CC2)cc1Cl` (stereo not shown) [3-006] the pest or weed control at 500 µg/mL [1] was ≥ 70%, the pest or weed control at 100 µg/mL [2] was ≥ 50% and the pest or weed control at 100 µg/mL [3] was ≥ 50%. For the same compound, the pest or weed control at 500 µg/mL [4] was ≥ 70% and the pest or weed control at 500 µg/mL [5] was ≥ 70%.

In the case of `CC(Cc1ncc(C#CC2CC2)cc1Cl)NC(=O)c1cn(C)nc1C(F)F` (stereo not shown) [8-024, N-[2-[3-chloro-5-(cyclopropylethynyl)pyridin-2-yl]-1-methylethyl]-3-difluoromethyl-1-methyl-1H-pyrazole-4-carboxamide], the pest or weed control at 500 µg/mL [1] is reported as ≥ 70%, the pest or weed control at 500 µg/mL [4] is reported as ≥ 70% and the melting point is reported as 127 to 130 °C. The pest or weed control at 500 µg/mL [5] was ≥ 70%.

In the case of `O=C(NCC(F)(F)c1ncc(C#CC2CC2)cc1Cl)c1cccnc1C(F)F` [3-003, N-[2-[3-chloro-5-(cyclopropylethynyl)pyridin-2-yl]-2,2-difluoroethyl]-2-(difluoromethyl)nicotinamide], the pest or weed control at 500 µg/mL [1] is reported as ≥ 70%, the pest or weed control at 100 µg/mL [2] is reported as ≥ 50% and the pest or weed control at 100 µg/mL [3] is reported as ≥ 50%. The pest or weed control at 500 µg/mL [4] was ≥ 70%, the melting point was 116 to 118 °C and the pest or weed control at 500 µg/mL [5] was ≥ 70%.

With `CC(C)(C)C#Cc1cnc(CCNC(=O)c2cccnc2C(F)F)c(Cl)c1` [3-002] the pest or weed control at 500 µg/mL [1] was ≥ 70%, the pest or weed control at 100 µg/mL [2] was ≥ 50% and the pest or weed control at 100 µg/mL [3] was ≥ 50%. For the same compound, the pest or weed control at 500 µg/mL [4] was ≥ 70%, the melting point was 144 to 146 °C and the pest or weed control at 500 µg/mL [5] was ≥ 70%.

For `O=C(NCC(F)(F)c1ncc(C#CC2CC2)cc1Cl)c1ccccc1C(F)(F)F` [1-005], the pest or weed control at 500 µg/mL [1] was ≥ 70%, the pest or weed control at 100 µg/mL [2] was ≥ 50% and the pest or weed control at 100 µg/mL [3] was ≥ 50%. The pest or weed control at 500 µg/mL [4] was ≥ 70%, the melting point was 137 to 139 °C and the pest or weed control at 500 µg/mL [5] was ≥ 70%.

In the case of `Cc1nc(C(F)F)c(C(=O)NCC(C)c2ncc(C#CC3CC3)cc2Cl)s1` (stereo not shown) [9-002], the pest or weed control at 500 µg/mL [1] is reported as ≥ 70%, the pest or weed control at 500 µg/mL [4] is reported as ≥ 70% and the pest or weed control at 500 µg/mL [5] is reported as ≥ 70%.

In the case of `O=C(NCCc1ncc(C#CC2CC2)cc1Cl)c1ccccc1C(F)(F)F` [1-002], the pest or weed control at 500 µg/mL [1] is reported as ≥ 70%, the pest or weed control at 100 µg/mL [3] is reported as ≥ 50% and the pest or weed control at 500 µg/mL [4] is reported as ≥ 70%. The melting point was 105 to 108 °C and the pest or weed control at 500 µg/mL [5] was ≥ 70%.

In the case of `Cn1cc(C(=O)NCC(c2ncc(C#CC3CC3)cc2Cl)C2CC2)c(C(F)F)n1` (stereo not shown) [8-009], the pest or weed control at 500 µg/mL [1] is reported as ≥ 70%, the pest or weed control at 100 µg/mL [2] is reported as ≥ 50% and the pest or weed control at 500 µg/mL [4] is reported as ≥ 70%. The pest or weed control at 500 µg/mL [5] was ≥ 70%.

With `CC(Cc1ncc(C#Cc2ccccc2)cc1Cl)NC(=O)c1cn(C)nc1C(F)F` (stereo not shown) [8-027] the pest or weed control at 500 µg/mL [1] was ≥ 70%, the pest or weed control at 500 µg/mL [4] was ≥ 70% and the pest or weed control at 500 µg/mL [5] was ≥ 70%.

In the case of `CC#Cc1cnc(CCNC(=O)c2ccccc2C(F)(F)F)c(Cl)c1` [1-001, N-[2-[3-chloro-5-(1-propynyl)pyridin-2-yl]ethyl]-2-(trifluoromethyl)benzamide], the pest or weed control at 500 µg/mL [1] is reported as ≥ 70%, the pest or weed control at 100 µg/mL [3] is reported as ≥ 50% and the pest or weed control at 500 µg/mL [4] is reported as ≥ 70%. The melting point was 100 to 103 °C and the pest or weed control at 500 µg/mL [5] was ≥ 70%.

In the case of `CSC(CNC(=O)c1cn(C)nc1C(F)F)c1ncc(C#CC2CC2)cc1Cl` (stereo not shown) [8-020, N-[2-[3-chloro-5-(cyclopropylethynyl)pyridin-2-yl]-2-(methylthio)ethyl]-3-difluoromethyl-1-methyl-1H-pyrazole-4-carboxamide], the pest or weed control at 500 µg/mL [1] is reported as ≥ 70% and the pest or weed control at 500 µg/mL [5] is reported as ≥ 70%.

In the case of `CSC(CNC(=O)c1cccnc1C(F)F)c1ncc(C#CC2CC2)cc1Cl` (stereo not shown) [3-020], the pest or weed control at 500 µg/mL [1] is reported as ≥ 70%, the pest or weed control at 100 µg/mL [2] is reported as ≥ 50% and the pest or weed control at 100 µg/mL [3] is reported as ≥ 50%. For the same compound, the pest or weed control at 500 µg/mL [4] was ≥ 70% and the pest or weed control at 500 µg/mL [5] was ≥ 70%.

With `O=C(NCC(c1ncc(C#CC2CC2)cc1Cl)C1CC1)c1cccnc1C(F)F` (stereo not shown) [3-008] the pest or weed control at 500 µg/mL [1] was ≥ 70%, the pest or weed control at 100 µg/mL [2] was ≥ 50% and the pest or weed control at 100 µg/mL [3] was ≥ 50%. For the same compound, the pest or weed control at 500 µg/mL [4] was ≥ 70% and the pest or weed control at 500 µg/mL [5] was ≥ 70%.

In the case of `Cn1cc(C(=O)NCC(F)(F)c2ncc(C#CC3CC3)cc2Cl)c(C(F)F)n1` [8-003], the pest or weed control at 500 µg/mL [1] is reported as ≥ 70%, the pest or weed control at 100 µg/mL [3] is reported as ≥ 50% and the pest or weed control at 500 µg/mL [4] is reported as ≥ 70%. For the same compound, the melting point was 100 to 101 °C and the pest or weed control at 500 µg/mL [5] was ≥ 70%.
